Where “and” joins values, the source holds several entries; their conditions need not be identical. Equal entries are not always repeated. Where two headings read alike, the source gives them in different places. Blank lines part the entries; values can stand above or below the compound they belong to.
How the values were obtained:
[1] = tested on: esterases in pig cornea homogenate (NPA hydrolysis); assay: Inhibition of NPA hydrolysis in pig cornea; type: biochemical; conditions: 0.1 mM NPA; for IC50: for PMSF no unique IC50, concentration giving 50% inhibition, read-out: IC50 (this study), inhibition of NPA hydrolysis
Description: (§1) NPA hydrolysis was performed with a slight modification to our previous protocol[22] in clear flat-bottom 96-well Thermo Scientific Sterilin Microtiter plates at 37 °C. Diluted ocular samples (8 μg of protein in 80 μL of PBS) were pipetted into the reaction wells, and the background absorbance was measured at 405 nm for 10 min of preincubation. […] Changes in absorbance at 405 nm were recorded with a Victor^2 Microplate Reader (PerkinElmer Wallac 1420, St. Paul, MN) for 45 min with 90 s reading intervals. 4-Nitrophenol was used to generate a standard curve (5–400 μM).
(§2) Inhibitors were tested at a final concentration range of 0.4–400 μM except for PMSF (0.3–2.5 mM).
(§3) The differences among hydrolytic activities were analyzed by ANOVA using the SigmaPlot software (Sigma Plot 13.0, Systat Software Inc., San Jose, CA), followed by Mann–Whitney U test for statistical comparisons between species and between tissues. Between species, statistically significant differences are ranked by the asterisk signs (in the order of *, p < 0.05; **, p < 0.01, and *** p < 0.001). Between tissues of the same species, statistically significant differences in comparison to conjunctiva are represented by the dagger sign (†, p < 0.05). Nonlinear regression analysis to determine the Km, Vmax, and IC50 values were done using GraphPad Prism (GraphPad, 5.04 Software Inc., San Diego, CA). For IC50, logarithms of inhibitor concentrations were plotted against the relative response (0 μM inhibitor = 100%).

[2] = tested on: most esterases; conditions: cited from earlier work
[3] = tested on: CES2 (FDA hydrolysis in pig retina); assay: Inhibition of FDA hydrolysis in pig retina; type: biochemical; conditions: 10 μM FDA
Description: Diluted samples (5 μg of protein) were incubated at 37 °C in black 96-well Thermo Scientific Nunc F96 MicroWell plates. […] The fluorescein stock solution was used to generate a standard curve (0.156–10 μM) using 2-fold serial dilutions in 0.1 M PBS, pH 7.4.
as §2, §3

[4] = target: CES2 > CES1 (HLM); design: method as in PMID 23648675, PMID 32955894; conditions: read-out: Ki (literature); cited from earlier work
[5] = tested on: rhCES2; conditions: cited from earlier work
[6] = tested on: esterases in rabbit cornea, iris–ciliary body and aqueous humor; design: method as in PMID 16223870; conditions: 1000 μM; cited from earlier work
[7] = tested on: CES2 (rabbit ocular tissue homogenates); conditions: for FDA hydrolysis rate: 100 μM FDA
[8] = tested on: CES2 (pig ocular tissue homogenates); conditions: for FDA hydrolysis rate: 100 μM FDA
[9] = tested on: multiple esterases (rabbit ocular tissue homogenates); assay: NPA hydrolysis in rabbit ocular tissue homogenates; type: in vitro ADME; conditions: for NPA hydrolysis rate: 400 μM NPA
Description: as §1, with “St.” for “St. Paul, MN) for 45 min with 90 s reading intervals. 4-Nitrophenol was used to generate a standard curve (5–400 μM).”

[10] = tested on: pig liver CES1; conditions: NPA, read-out: Km literature data; cited from earlier work
[11] = tested on: multiple esterases (HLM); conditions: NPA, read-out: Km literature data; cited from earlier work
[12] = tested on: multiple esterases (rabbit cornea); conditions: NPA, read-out: Km literature data; cited from earlier work
[13] = tested on: multiple esterases (pig ocular tissue homogenates); assay: NPA hydrolysis in pig ocular tissue homogenates; type: in vitro ADME; conditions: for NPA hydrolysis rate: 400 μM NPA
Description: as §1, with “St.” for “St. Paul, MN) for 45 min with 90 s reading intervals. 4-Nitrophenol was used to generate a standard curve (5–400 μM).”

[14] = target: CES1 (DME hydrolysis in pig cornea and conjunctiva) (Sus scrofa, UniProt F1RF16); assay: Inhibition of DME hydrolysis in pig cornea and conjunctiva; type: biochemical; conditions: 5 μM DME, at 200 μM inhibitor, read-out: Extent of inhibition of DME hydrolysis
Description: (§4) The hydrolysis of DME was monitored with slight modifications using the published bioluminescence-based assay[13],[21] where recombinant firefly luciferase enzyme was used to detect the D-luciferin that formed in the reaction mixture. The DME hydrolysis reaction was done in white-coated 96-well plates (Thermo Scientific Sterilin Microtiter Plates). Tissue lysates (5 μg of protein) were preincubated in 0.1 M PBS, pH 6.5. The reaction was initiated by adding DME to a final concentration of 5 μM in a final volume of 200 μL. The hydrolysis of DME was allowed to proceed for 20 min at 37 °C. The formed D-luciferin was quantitated by an injection of 73 μL of the luciferase detection reagent [3 μg of rLuciferase, 50 nmol of ATP, and 50 nmol of MgCl2 in PBS], and the luminescence was measured immediately with a Victor^2 Microplate Reader (560 nm, 1 s). Serial 2-fold dilutions of D-luciferin in 0.1 M PBS, pH 6.5 were used to generate the standard curve (0.156–10 μM).
as §2
(§5) The differences among hydrolytic activities were analyzed by ANOVA using the SigmaPlot software (Sigma Plot 13.0, Systat Software Inc., San Jose, CA), followed by Mann–Whitney U test for statistical comparisons between species and between tissues. […]

[15] = tested on: CES1 (DME hydrolysis in rabbit cornea and conjunctiva); assay: Inhibition of DME hydrolysis in rabbit cornea and conjunctiva; type: biochemical; conditions: 5 μM DME, at 200 μM inhibitor
Description: as §4, §2, §5

[16] = tested on: AADAC (pig ocular tissue homogenates); assay: Phenacetin hydrolysis to p-phenetidine in pig ocular tissues; type: in vitro ADME; conditions: 4 mM phenacetin, below detection limit
Description: (§6) Phenacetin, a specific substrate for human AADAC,[18],[19],[24] was incubated with ocular tissue homogenates. The substrate (4 mM, final concentration) was preincubated in the 0.1 M Tris-HCl, pH 7.4, buffer at 37 °C for 5 min, after which the tissue samples (20 μg of protein) were added to start the reaction in the total reaction volume of 200 μL. All the reaction and control samples were incubated for 50 min at 37 °C with shaking. The reaction was terminated by adding 200 μL of ice-cold ACN containing acetaminophen at an 1 μM final concentration as the internal standard, followed by centrifugation at 4 °C for 10 min at 10 000g. A standard curve using the metabolite p-phenetidine (0.1–100 μM)[24] was established. The protein amount and incubation time were optimized from earlier pilot experiments for both procaine and phenacetin hydrolysis reactions. All incubations were performed in triplicate including the controls (control with no sample, control with no substrate), and the data are expressed as mean ± SD.
(§7) The metabolites from the above CES2 and AADAC assays were analyzed using a Waters (Milford, MA) Acquity ultra-performance liquid chromatographic (UPLC) coupled with a Q-Exactive Focus Orbitrap MS (Thermo Scientific). […]

[17] = tested on: AADAC (rabbit ocular tissue homogenates); assay: Phenacetin hydrolysis to p-phenetidine in rabbit ocular tissues; type: in vitro ADME; conditions: 4 mM phenacetin, below detection limit
Description: as §6, §7

[18] = tested on: CES2 (pig ocular tissue homogenates); assay: Procaine hydrolysis to PABA in pig ocular tissues; type: in vitro ADME; conditions: 100 μM procaine
Description: (§8) Procaine, a known human CES2 substrate,[2],[17],[50] was incubated with rabbit and pig ocular tissues. After preincubation of the substrate (100 μM procaine in 0.1 M Tris-HCl, pH 7.4) at 37 °C, the reaction was initiated with tissue samples (20 μg of protein) in a total reaction volume of 200 μL. All the samples in parallel with the controls (no substrate or no enzyme) were incubated for 50 min at 37 °C on a shaker incubator (Heidolph Titramax 1000 platform shaker, Berlin Germany). The reaction was terminated by adding 200 μL of ice-cold ACN containing the internal standard procainamide (1 μM final concentration), followed by centrifugation at 4 °C for 10 min at 10 000g. Supernatants were collected for HPLC analysis. The standard curve was established using the hydrolysis product PABA with the concentration range 0.1–1000 nM.[51]
(§9) The metabolites from the above CES2 and AADAC assays were analyzed using a Waters (Milford, MA) Acquity ultra-performance liquid chromatographic (UPLC) coupled with a Q-Exactive Focus Orbitrap MS (Thermo Scientific). A Waters HSS T3 column (2.1 mm × 100 mm, 1.8 μm particle size) was used with elution gradients A (0.1% formic acid) and B (methanol) [0–0.5 min, 1% B; 0.5–4 min, 1%–20% B; 4–4.5 min, 20%–98% B; 4.5–5 min, 98% B; and 5–6 min, 98%–1% B]. The injection volume was 2 μL with a flow rate of 0.5 mL/min and a column temperature of 40 °C. […]

[19] = tested on: CES2 (rabbit ocular tissue homogenates); assay: Procaine hydrolysis to PABA in rabbit ocular tissues; type: in vitro ADME; conditions: 100 μM procaine
Description: as §8, §9

Chain of CES1 (DME hydrolysis in pig cornea and conjunctiva) (F1RF16 19-530): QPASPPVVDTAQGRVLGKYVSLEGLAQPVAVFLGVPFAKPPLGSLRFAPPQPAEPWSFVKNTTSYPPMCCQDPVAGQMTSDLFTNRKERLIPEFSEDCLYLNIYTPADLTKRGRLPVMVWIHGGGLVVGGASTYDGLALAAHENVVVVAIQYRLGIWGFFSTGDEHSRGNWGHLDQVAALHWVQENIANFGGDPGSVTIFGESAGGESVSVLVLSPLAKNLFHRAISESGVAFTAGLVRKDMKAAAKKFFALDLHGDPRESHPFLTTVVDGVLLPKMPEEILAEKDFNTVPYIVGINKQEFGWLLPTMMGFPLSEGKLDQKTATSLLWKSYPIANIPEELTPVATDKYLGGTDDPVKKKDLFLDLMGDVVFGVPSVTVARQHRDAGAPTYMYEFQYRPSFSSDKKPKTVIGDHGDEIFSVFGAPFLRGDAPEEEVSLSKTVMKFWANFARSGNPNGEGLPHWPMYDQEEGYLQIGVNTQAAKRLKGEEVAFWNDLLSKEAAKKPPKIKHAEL

Compound: O=S(=O)(F)Cc1ccccc1 [PMSF, phenylmethylsulfonyl fluoride]
IC50 [1]: 200 µM and ~200 µM
IC50 ([2]; most esterases, read-out: IC50 (literature)): 541 µM
Ki ([2]; most esterases, read-out: Ki (literature)): 560 µM
IC50 ([2]; other tissues, read-out: reported IC50 value in other tissues): ~500 µM

Compound: COc1ccc(CCN(C)CCCC(C#N)(c2ccc(OC)c(OC)c2)C(C)C)cc1OC (stereo not drawn) [verapamil]
Extent of inhibition of FDA hydrolysis [3]: no inhibition
Ki [4]: 11.5 ± 1.2 µM
IC50 ([5]; rhCES2, read-out: IC50 (literature)): 7.94 µM
Ki ([5]; rhCES2, read-out: Ki (literature)): 3.84 ± 0.99 µM

Compound: O=C(O)c1cc[c]([Hg][Cl])cc1 [p-chloromercuribenzoate]
Inhibition of naphthyl acetate hydrolysis [6]: 10%–30%

FDA hydrolysis rate ([7]; rabbit RPE, aqueous humor and vitreous): 0.1 to 0.2 nmol/min/mg
FDA hydrolysis rate ([7]; rabbit choroid, cornea and conjunctiva): > 1.0 nmol/min/mg
FDA hydrolysis rate ([7]; rabbit retina): 0.5 to 1 nmol/min/mg
Km ([7]; read-out: Km (this study), FDA hydrolysis in rabbit cornea): 5.5 ± 0.4 µM
FDA hydrolysis rate ([8]; most pig ocular tissues (except retina)): < 0.1 nmol/min/mg
FDA hydrolysis rate ([8]; pig retina): 0.6 ± 0.1 nmol/min/mg
Km ([8]; read-out: Km (this study), FDA hydrolysis in pig retina): 16 ± 1.6 µM
Compound: CC(=O)Oc1ccc2c(c1)Oc1cc(OC(C)=O)ccc1C21OC(=O)c2ccccc21 [FDA, fluorescein diacetate]

Km ([9]; NPA hydrolysis in rabbit cornea, read-out: Km (this study)): 263 ± 15 µM
NPA hydrolysis rate ([9]; rabbit RPE): 17.5 ± 2.7 nmol/min/mg
NPA hydrolysis rate ([9]; rabbit choroid): 81.6 ± 6.8 nmol/min/mg
NPA hydrolysis rate ([9]; rabbit, most ocular tissue homogenates, 37 °C): 30–45 nmol/min/mg protein
Km ([13]; NPA hydrolysis in pig cornea, read-out: Km (this study)): 125 ± 13 µM
NPA hydrolysis rate ([13]; pig RPE): 8.4 ± 1.0 nmol/min/mg
NPA hydrolysis rate ([13]; pig, all ocular tissues except RPE): around 20 nmol/min/mg
Compound: CC(=O)Oc1ccc([N+](=O)[O-])cc1 [NPA, 4-Nitrophenyl acetate]
Km [10]: 520 ± 60 µM
Km [11]: 198 ± 17 µM
Km [12]: 68 ± 15 µM

Compound: O=C(O)CN(CCN(CC(=O)O)CC(=O)O)CC(=O)O [EDTA]
Inhibition of naphthyl acetate hydrolysis [6]: 10%–30%

Compound: CC(C)(C)NC[C@H](O)COc1nsnc1N1CCOCC1 [timolol]
Extent of inhibition of FDA hydrolysis [3]: no inhibition
inhibition (literature, printed in IC50 column) ([5]; main human enzyme CES2, at 200 μM): 20% inhibition at 200 μM

Compound: C[C@@H]1CC[C@@]2(OC1)O[C@H]1[C@@H](O)[C@H]3[C@@H]4CC[C@H]5C[C@@H](O[C@@H]6O[C@H](CO)[C@H](O[C@@H]7O[C@H](CO)[C@@H](O)[C@H](O[C@@H]8OC[C@@H](O)[C@H](O)[C@H]8O)[C@H]7O[C@@H]7O[C@H](CO)[C@H](O)[C@H](O[C@@H]8O[C@H](CO)[C@@H](O)[C@H](O)[C@H]8O)[C@H]7O)[C@H](O)[C@H]6O)[C@H](O)C[C@]5(C)[C@H]4CC[C@]3(C)[C@H]1[C@@H]2C [digitonin]
inhibition at 200 µM [14]: 15%
Extent of inhibition of DME hydrolysis [15]: 30%
IC50 [1]: 38 µM
Extent of inhibition of NPA hydrolysis (maximal) ([1]; highest inhibitor concentration 400 μM (PMSF 2.5 mM)): ~40%

Compound: COc1ccc([C@@H]2Sc3ccccc3N(CCN(C)C)C(=O)[C@@H]2OC(C)=O)cc1 [diltiazem]
Ki [4]: 2.89 ± 0.39 µM

Phenacetin hydrolysis rate (p-phenetidine formation) [16]: undetectable
Phenacetin hydrolysis rate (p-phenetidine formation) ([16]; listed as Phenacetin): < 0.1 pmol/min/mg
Phenacetin hydrolysis rate (p-phenetidine formation) [17]: undetectable
Phenacetin hydrolysis rate (p-phenetidine formation) ([17]; listed as Phenacetin): < 0.1 pmol/min/mg
Compound: CCOc1ccc(NC(C)=O)cc1 [phenacetin]

Procaine hydrolysis rate (PABA formation) ([18]; pig aqueous humor (lowest)): 0.02 nmol/min/mg
Procaine hydrolysis rate (PABA formation) ([18]; pig retina (highest)): 0.09 nmol/min/mg
Procaine hydrolysis rate (PABA formation) ([19]; rabbit aqueous humor and conjunctiva): 0.04 to 0.1 nmol/min/mg
Procaine hydrolysis rate (PABA formation) ([19]; rabbit cornea, vitreous, RPE and choroid): 0.2 to 0.3 nmol/min/mg
Compound: CCN(CC)CCOC(=O)c1ccc(N)cc1 [procaine]
